Values of other authors in US8324203B2, “Azadecalin glucocorticoid receptor modulators” (Corcept Therapeutics, Inc., priority 2004, dated 2012).

How the values were obtained:
[1] = tested on: patients with Cushing's syndrome
GR = GR (Homo sapiens, UniProt P04150)
Sequence of GR (P04150 whole entry): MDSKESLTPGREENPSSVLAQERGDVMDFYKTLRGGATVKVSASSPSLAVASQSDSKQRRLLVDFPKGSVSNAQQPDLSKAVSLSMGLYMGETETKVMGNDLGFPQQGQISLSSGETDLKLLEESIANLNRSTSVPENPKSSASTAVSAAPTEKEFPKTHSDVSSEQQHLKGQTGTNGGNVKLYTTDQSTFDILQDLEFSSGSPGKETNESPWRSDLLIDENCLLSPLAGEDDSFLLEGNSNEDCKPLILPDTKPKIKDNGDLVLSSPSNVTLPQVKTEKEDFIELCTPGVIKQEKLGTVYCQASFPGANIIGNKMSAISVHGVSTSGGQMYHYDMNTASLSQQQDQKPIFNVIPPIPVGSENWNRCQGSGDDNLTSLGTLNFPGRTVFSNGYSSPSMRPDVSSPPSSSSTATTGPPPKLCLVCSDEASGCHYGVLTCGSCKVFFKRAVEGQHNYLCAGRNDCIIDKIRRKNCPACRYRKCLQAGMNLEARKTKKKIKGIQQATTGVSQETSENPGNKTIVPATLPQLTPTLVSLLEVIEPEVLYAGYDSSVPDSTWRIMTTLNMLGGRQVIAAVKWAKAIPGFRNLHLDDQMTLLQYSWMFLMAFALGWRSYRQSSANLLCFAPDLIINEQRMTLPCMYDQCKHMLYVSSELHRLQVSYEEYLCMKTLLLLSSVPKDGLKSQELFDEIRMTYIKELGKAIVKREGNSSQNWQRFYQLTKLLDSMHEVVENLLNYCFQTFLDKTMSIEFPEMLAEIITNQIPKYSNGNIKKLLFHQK

SMILES: CC#C[C@]1(O)CC[C@H]2[C@@H]3CCC4=CC(=O)CCC4=C3[C@@H](c3ccc(N(C)C)cc3)C[C@@]21C [mifepristone]
- effect on acute psychosis ([1]; 400 to 800 mg per day, severe Cushing Syndrome due to adrenal cancers and ectopic secretion of ACTH from lung cancer): useful in rapidly reversing acute psychosis
- effect on patients' conditions, including psychiatric status ([1]; Cushing's syndrome patients): improved the patients' conditions
- anti-glucocorticoid activity in humans (GR): effective anti-glucocorticoid agent in humans
